Data as given in PubChem BioAssay AID806 (SRMLSC, 2007).
Activity calls are given as the source filed them. How the calls were made is not given here.

Tested on: virus-infected cells, CPE inhibition, dose response
Assay: PubChem AID 806
Conditions: for EC90: measured here: EC90 CPE inhibition; for CC50: measured here: cytotoxicity, cell viability IC50

Compound | EC50 | EC90 [µM] | CC50 [µM]
COc1ccc(-c2csc(NC(=O)C3CCCCN3S(=O)(=O)c3ccccc3)n2)cc1 (stereo unspecified) | > 60 µM (inactive) | > 60 | > 60
C#CCSc1nnc(-c2ccc(OC)cc2)o1 | > 60 µM (inactive) | > 60 | > 60
Cc1ccc(-n2nc(C(=O)N3CCOCC3)cc2-c2ccc(Cl)cc2)cc1 | > 60 µM (inactive) | > 60 | 7.33
O=C(c1cc(-c2ccc(Cl)cc2)n(-c2cc(Cl)ccc2Cl)n1)N1CCOCC1 | > 60 µM (inactive) | > 60 | > 60
O=C(COc1ccccc1)N(Cc1ccco1)c1ccc(O)cc1 | > 60 µM (inactive) | > 60 | > 60
CCOc1ccc(Nc2ncnc3c2cnn3-c2ccccc2)cc1 | > 60 µM (inactive) | > 60 | > 60
O=C1CC(C(=O)Nc2cccc3ccccc23)C2(CCCC2)O1 (stereo unspecified) | > 60 µM (inactive) | > 60 | > 60
CCSc1nnc(-c2ccc(OC)cc2)o1 | > 60 µM (inactive) | > 60 | > 60
CCOC(=O)CN(C(=O)Cn1nnc2ccccc21)C(C(=O)NCCOC)c1ccccc1 (stereo unspecified) | > 60 µM (inactive) | > 60 | > 60
CCOC(=O)/C=C1\SCC(=O)N1CC(=O)Nc1ccc(C(C)C)cc1 | > 60 µM (inactive) | > 60 | > 60
COc1ccccc1CNC(=O)c1ccc(S(=O)(=O)N(C)C)cc1 | > 60 µM (inactive) | > 60 | > 60
CCOc1ccccc1Nc1ncnc2c1cnn2-c1ccccc1 | > 60 µM (inactive) | > 60 | > 60
COc1ccccc1Cn1c(=O)c2ccccc2n2c(SCc3csc(C)n3)nnc12 | > 60 µM (inactive) | > 60 | > 60
O=C(CSc1ccc2nnc(-c3ccccc3)n2n1)NCc1ccco1 | > 60 µM (inactive) | > 60 | > 60
CCOC(=O)c1cccc(NC(=O)CCS(=O)(=O)c2cccc3nsnc23)c1 | > 60 µM (inactive) | > 60 | > 60
COc1ccc(-c2nnc3ccc(SCC(=O)NCc4ccco4)nn23)cc1 | > 60 µM (inactive) | > 60 | > 60
CCS(=O)(=O)Nc1cc(-c2nc3cccnc3s2)ccc1C | > 60 µM (inactive) | > 60 | > 60
O=C(c1cc(-c2ccc(Cl)cc2)n(-c2ccc(Cl)cc2Cl)n1)N1CCOCC1 | > 60 µM (inactive) | > 60 | > 60
CC(c1ccco1)N(C(=O)COc1ccccc1[N+](=O)[O-])c1ccccn1 (stereo unspecified) | > 60 µM (inactive) | > 60 | > 60
COCCNC(=O)C(c1ccco1)N(C(=O)Cn1nnc2ccccc21)c1ccccc1C (stereo unspecified) | > 60 µM (inactive) | > 60 | > 60
O=C1CSC(=S)N1Cc1cccnc1 | > 60 µM (inactive) | > 60 | 50.8
Cc1ccccc1Nc1ncnc2c1cnn2-c1ccccc1 | > 60 µM (inactive) | > 60 | > 60
CC1Cc2ccccc2N1C(=O)C1CCCCN1S(=O)(=O)c1ccccc1 (stereo unspecified) | > 60 µM (inactive) | > 60 | > 60
Cc1ccc(-c2nnc3ccc(SCC(=O)NCc4ccco4)nn23)cc1 | > 60 µM (inactive) | > 60 | > 60
COc1ccc(C)cc1NC(=O)c1cc2ccccc2o1 | > 60 µM (inactive) | > 60 | > 60

Compound | EC50 | EC90 [µM] | CC50 [µM]
COc1ccc(OC)c(C2=NOC(C(=O)Nc3cc(C)nn3-c3ccccc3)C2)c1 (stereo unspecified) | > 60 µM (inactive) | > 60 | > 60
CCCCN(C(=O)Cn1nnc2ccccc21)C(C(=O)NCCOC)c1ccc(OC)cc1OC (stereo unspecified) | > 60 µM (inactive) | > 60 | > 60
CC(c1ccco1)N(C(=O)COc1ccc(Cl)cc1)c1ccccn1 (stereo unspecified) | > 60 µM (inactive) | > 60 | > 60
CC1CN(C(=O)c2cnn3c(C(F)F)cc(-c4ccccc4)nc23)CC(C)O1 (stereo unspecified) | > 60 µM (inactive) | > 60 | > 60
NC1C2CN(c3nc4c(cc3F)c(=O)c(C(=O)O)cn4-c3ccc(F)cc3F)CC12 (stereo unspecified) | – | > 60 | 45.1
CC(=O)Nc1ccc(Nc2ncnc3c2cnn3-c2ccccc2)cc1 | > 60 µM (inactive) | > 60 | > 60
Cc1ccc(-n2ncc3c(Nc4cccc(C(=O)O)c4)ncnc32)cc1 | > 60 µM (inactive) | > 60 | > 60
CSc1nnc(-c2ccc(Cl)cc2Cl)o1 | 48.5 µM (inactive) | > 60 | > 60
CC(C)(C)OC(=O)N[C@@H](Cc1ccccc1)c1nnc(SCC(=O)O)o1 | > 60 µM (inactive) | > 60 | > 60
CC1CCN(c2ccc(C(=O)NCc3cccs3)cn2)CC1 | > 60 µM (inactive) | > 60 | > 60
Cc1ccc(NC(=O)C2CC(=O)OC23CCOC(C)(C)C3)cc1 (stereo unspecified) | > 60 µM (inactive) | > 60 | > 60
O=C(NCc1ccccc1)c1ccc(S(=O)(=O)N2CCCC2)cc1 | > 60 µM (inactive) | > 60 | > 60
Cc1ccccc1NC(=O)c1ccc(NC(=O)c2ccco2)cc1 | > 60 µM (inactive) | > 60 | > 60
Cc1cc(NC(=O)c2noc3c2CCc2ccccc2-3)no1 | > 60 µM (inactive) | > 60 | > 60
Cc1cccc(NC(=O)C2CC(=O)OC23CCCC3)c1 (stereo unspecified) | > 60 µM (inactive) | > 60 | > 60
CC(C)CCNC(=O)C1CCCCN1S(=O)(=O)c1ccc(F)cc1 (stereo unspecified) | > 60 µM (inactive) | > 60 | > 60
COc1ccc(-c2nc3nc(C)c(Cc4ccccc4)c(=O)n3[nH]2)cc1 | > 60 µM (inactive) | > 60 | > 60
Cc1ccc(S(=O)(=O)N2CCCCC2C(=O)NCc2ccco2)cc1 (stereo unspecified) | > 60 µM (inactive) | > 60 | > 60
Cc1ccc(SCC(=O)Nc2ccc(-c3nnc(-c4ccco4)o3)cc2)cc1 | > 60 µM (inactive) | > 60 | > 60
Cc1cccc(NC(=O)c2cc3ccccc3o2)c1 | > 60 µM (inactive) | > 60 | > 60
Cc1noc(C)c1CSc1nc2sc(C)c(C)c2c(=O)n1C1CCCC1 | > 60 µM (inactive) | > 60 | 10
Nc1c(C(=O)Nc2ccc(Cl)cc2)oc2ccccc12 | > 60 µM (inactive) | > 60 | > 60
CS(=O)(=O)c1nc(-c2cccs2)cc(C(F)(F)F)n1 | > 60 µM (inactive) | > 60 | 30.1
O=C(C1CCCCN1S(=O)(=O)c1ccccc1)N1CCCCC1 (stereo unspecified) | > 60 µM (inactive) | > 60 | > 60
